Measured values as given in patent US20260258172A1, “CATIONIC POLYMERS WITH SELECTIVE ANTIFUNGAL PROPERTIES” (Uniwersytet Jagiellonski, priority 2022, published 2026).

How the values were obtained:
Format in all cases: cell-based
[1] = system: 3T3-L1 murine embryonic fibroblast line; experiment: Neutral red uptake toxicity test, 3T3-L1 fibroblasts; conditions: medium with serum
Description: Preliminary tests were conducted in the 3T3-L1 murine embryonic fibroblast line (ATCC, CL-173™), an immortalized line (highly tolerant cells). DMEM was used as the medium. 24 h after seeding and successful adhesion, polymers dissolved in the medium were added to the cells (the medium was first replaced with a serum-free medium in serum-free experiments), and viable cells were quantified after another 24 h using the neutral red uptake assay.
The toxicity of ciclopirox and terbinafine, two commercially used antifungal drugs, was evaluated in similar conditions (the same cell line, medium composition and exposure time).

[2] = system: Aspergillus brasiliensis ATCC 16404; experiment: Antifungal microdilution MIC test; conditions: comparative test; for MIC: Aspergillus brasiliensis, ATCC16404
Description: (§1) In vitro tests of the antifungal activity of the polymers were performed with respect to selected fungal species obtained from international culture collections and the microorganism collection in the Department of Infection Control and Mycology, Chair of Microbiology, Jagiellonian University Medical College. The test was performed using the microdilution method in a liquid medium on flat-bottomed, 96-well polypropylene titration plates. The applied methodology was based on antifungal susceptibility testing procedures developed by the European Committee on Antimicrobial Susceptibility Testing (EUCAST) and on the Hancock Lab procedure for antimicrobial cationic peptides.
(§2) The test compounds were dissolved in sterile distilled water and starting concentrations of 5 g/L were prepared, from which a series of two-fold dilutions in water were obtained. Respective polymer dilutions were transferred in a volume of 20 μL on titration plates (wells 1-10). 20 μL of sterile distilled water was transferred to each of wells 11 and 12. Wells 1-11 were inoculated with fungi in a volume of 180 μL of fungal cell suspensions in a liquid medium, and 180 μL of the sterile medium was transferred to well 12. Fungal suspensions were prepared from fresh cultures on agar media by collecting spores using a sterile swab into sterile distilled water or sterile distilled water with Tween-20 added. Suspensions of certain strains were filtered to remove any hyphal elements (filters with a pore diameter of 20 μm and 10 μm were used). The suspensions were brought to a density of 0.5 on the McFarland scale, and subsequently diluted to 1:20 in a liquid RPMI-1640 medium with L-glutamine and without sodium bicarbonate, supplemented with glucose (2%) and buffered morpholinopropanesulfonic acid (MOPS) (0.165 mol/L).
(§3) Final polymer concentrations on plates after adding fungal suspensions in the liquid medium were 0.49-250 mg/L or 0.98-500 mg/L.
(§4) Incubation was performed at room temperature, 27° C., 37° C., depending on the fungal species, until fungal growth was obtained in growth control (well 11). After the incubation period, fungal growth was evaluated visually and the lowest polymer concentrations that caused complete fungal growth inhibition (MIC (minimal inhibitory concentration) values) were determined.
(§5) A test was performed on selected fungal strains to compare MIC values of the PMAPTAC133 polymer with the MIC values of two known antifungal drugs (terbinafine and ciclopirox), used in the treatment of fungal infections of glabrous skin, hairy skin and nails.
(§6) The procedure described in the section above (Example 8) was used in the testing.
(§7) The drugs were dissolved in dimethyl sulfoxide (DMSO) and starting concentrations of 4 g/L were prepared, from which series of two-fold dilutions in DMSO were obtained. Respective […] concentrations were diluted to 1:100 in sterile water and subsequently transferred to wells 1-10 on a titration plate in a volume of 20 μL. Wells 11 and 12 were filled up with 20 μL DMSO diluted to 1:10 in water. Wells 1-11 were inoculated with fungi in a volume of 180 μL of fungal cell suspensions in a liquid medium, and […] of the sterile medium was transferred to well 12. Final drug concentrations on plates after adding fungal suspensions in the liquid medium were 0.008-4 mg/L.

[3] = system: Aspergillus flavus ATCC 204304; experiment: Antifungal microdilution MIC test; conditions: comparative test; for MIC: Aspergillus flavus, ATCC204304
Description: as §1, §2, §3, §4, §5, §6, §7

[4] = system: Aspergillus fumigatus DSM 819; experiment: Antifungal microdilution MIC test; conditions: comparative test; for MIC: Aspergillus fumigatus, DSM819
Description: as §1, §2, §3, §4, §5, §6, §7

[5] = system: Aspergillus fumigatus SU 56; experiment: Antifungal microdilution MIC test; conditions: comparative test; for MIC: Aspergillus fumigatus, SU56
Description: as §1, §2, §3, §4, §5, §6, §7

[6] = system: Aspergillus terreus DSM 1958; experiment: Antifungal microdilution MIC test; conditions: comparative test; for MIC: Aspergillus terreus, DSM1958
Description: as §1, §2, §3, §4, §5, §6, §7

[7] = system: Candida albicans ATCC 90028; experiment: Antifungal microdilution MIC test; conditions: ATCC90028, comparative test
Description: as §1, §2, §3, §4, §5, §6, §7

[8] = system: Cryptococcus neoformans; experiment: Antifungal microdilution MIC test; conditions: Cryptococcus neoformans, comparative test
Description: as §1, §2, §3, §4, §5, §6, §7

[9] = system: Fusarium solani strain 155; experiment: Antifungal microdilution MIC test; conditions: comparative test
Description: as §1, §2, §3, §4, §5, §6, §7

[10] = system: Scopulariopsis brevicaulis 34; experiment: Antifungal microdilution MIC test; conditions: comparative test
Description: as §1, §2, §3, §4, §5, §6, §7

[11] = system: Scopulariopsis brevicaulis DSM 9122; experiment: Antifungal microdilution MIC test; conditions: DSM9122, comparative test
Description: as §1, §2, §3, §4, §5, §6, §7

[12] = system: Trichophyton interdigitale 251; experiment: Antifungal microdilution MIC test; conditions: comparative test, incubation time 72 h
Description: as §1, §2, §3, §4, §5, §6, §7

[13] = system: Trichophyton interdigitale D182; experiment: Antifungal microdilution MIC test; conditions: comparative test
Description: as §1, §2, §3, §4, §5, §6, §7

[14] = system: Trichophyton interdigitale DSM4167; experiment: Antifungal microdilution MIC test; conditions: comparative test
Description: as §1, §2, §3, §4, §5, §6, §7

[15] = system: Trichophyton mentagrophytes ATCC 18484; experiment: Antifungal microdilution MIC test; conditions: comparative test; for MIC: Trichophyton mentagrophytes, ATCC18484
Description: as §1, §2, §3, §4, §5, §6, §7

[16] = system: Trichophyton rubrum D197; experiment: Antifungal microdilution MIC test; conditions: comparative test
Description: as §1, §2, §3, §4, §5, §6, §7

[17] = system: Trichophyton rubrum D320; experiment: Antifungal microdilution MIC test; conditions: comparative test
Description: as §1, §2, §3, §4, §5, §6, §7

[18] = system: Trichophyton rubrum DSM 16111; experiment: Antifungal microdilution MIC test; conditions: DSM16111, comparative test
Description: as §1, §2, §3, §4, §5, §6, §7

[19] = system: Trichophyton tonsurans 264; experiment: Antifungal microdilution MIC test; conditions: comparative test
Description: as §1, §2, §3, §4, §5, §6, §7

[20] = system: Trichophyton tonsurans DSM 12285; experiment: Antifungal microdilution MIC test; conditions: DSM12285, comparative test
Description: as §1, §2, §3, §4, §5, §6, §7

[21] = system: Candida glabrata ATCC 15545; experiment: Antifungal microdilution MIC test; conditions: Nakaseomyces glabratus, ATCC15545, comparative test
Description: as §1, §2, §3
as §4, with “determined. […]” for “determined.”

[22] = system: Candida krusei ATCC 6258; experiment: Antifungal microdilution MIC test; conditions: Pichia kudriavzevii, ATCC6258, comparative test
Description: as §1, §2, §3
as §4, with “determined. […]” for “determined.”

[23] = system: Fusarium oxysporum 109; experiment: Antifungal microdilution MIC test; conditions: comparative test
Description: as §1, §2, §3
as §4, with “determined. […]” for “determined.”

[24] = system: Fusarium oxysporum DSM 841; experiment: Antifungal microdilution MIC test; conditions: DSM841, comparative test
Description: as §1, §2, §3
as §4, with “determined. […]” for “determined.”

[25] = system: Fusarium solani DSM 1164; experiment: Antifungal microdilution MIC test; conditions: DSM1164, comparative test
Description: as §1, §2, §3
as §4, with “determined. […]” for “determined.”

CN(C/C=C/C#CC(C)(C)C)Cc1cccc2ccccc12 [Terbinafine, terbinafine]
>4 mg/L: concentration with growth suppression ([5]; incubation time 48 h)
0.06 µg/mL: MIC ([18]; incubation time 24 h)
2 µg/mL: MIC ([2]; incubation time 24 h) | MIC ([6]; incubation time 24 h) | MIC ([17]; incubation time 72 h)
0.125 µg/mL: MIC ([15]; incubation time 24 h) | MIC ([16]; incubation time 48 h) | MIC ([17]; incubation time 48 h)
0.5 µg/mL: MIC ([13]; incubation time 72 h) | MIC ([15]; incubation time 48 h) | MIC ([19]; incubation time 48 h) | MIC ([19]; incubation time 72 h)
2 mg/L: concentration with (clear) growth suppression ([2]; incubation time 48 h) | concentration with growth suppression ([3]; incubation time 48 h) | concentration with growth suppression ([4]; incubation time 24 h) | concentration with growth suppression ([6]; incubation time 48 h)
4 µg/mL: MIC ([3]; incubation time 24 h) | MIC ([5]; incubation time 24 h)
> 4 µg/mL: MIC ([2]; incubation time 48 h) | MIC ([3]; incubation time 48 h) | MIC ([4]; incubation time 24 h) | MIC ([4]; incubation time 48 h) | MIC ([5]; incubation time 48 h) | MIC ([6]; incubation time 48 h) | MIC ([7]; incubation time 24 h) | MIC ([7]; incubation time 48 h) | MIC ([8]; incubation time 24 h) | MIC ([8]; incubation time 48 h) | MIC ([9]; incubation time 24 h) | MIC ([9]; incubation time 48 h) | MIC ([10]; incubation time 24 h) | MIC ([10]; incubation time 48 h) | MIC ([11]; incubation time 24 h) | MIC ([11]; incubation time 48 h) | MIC ([21]; incubation time 24 h) | MIC ([21]; incubation time 48 h) | MIC ([22]; incubation time 24 h) | MIC ([22]; incubation time 48 h) | MIC ([23]; incubation time 24 h) | MIC ([23]; incubation time 48 h) | MIC ([24]; incubation time 24 h) | MIC ([24]; incubation time 48 h) | MIC ([25]; incubation time 24 h) | MIC ([25]; incubation time 48 h)
0.25 µg/mL: MIC ([13]; incubation time 48 h) | MIC ([14]; incubation time 48 h) | MIC ([14]; incubation time 72 h) | MIC ([16]; incubation time 72 h) | MIC ([18]; incubation time 48 h) | MIC ([18]; incubation time 72 h) | MIC ([20]; incubation time 48 h) | MIC ([20]; incubation time 72 h)
25000 ng/mL: concentration at which the number of viable cells decreased to less than 50% ([1]; 24 h exposure)
1 µg/mL: MIC [12] | MIC ([15]; incubation time 72 h)
0.25 mg/L: concentration with marginal growth ([15]; incubation time 48 h)
≤ 10%: viable cells ([1]; concentrations of 50, 75 and 100 μg/mL, 24 h)
